According to patent US6075013A, “Modified low molecular weight heparin that inhibits clot associated coagulation factors” (Hamilton Civic Hospitals Research Development Inc., priority 1998, dated 2000):

B1: prothrombin fragment 2 (F2): prothrombin fragment 2, binds to exosite 2 of thrombin (protein, UniProt P00734 199-327, looked up)
Activation peptide fragment 2: SEGSSVNLSPPLEQCVPDRGQQYQGRLAVTTHGLPCLAWASAQAKALSKHQDFNSAVQLVENFCRNPDGDEEGVWCYVAGKPGDFGYCDLNYCEEAVEEETGDGLDEDSDRAIEGRTATSEYQTFFNPR
modifications: Activation peptide fragment 2

Assays:
washed plasma clot = assay: procoagulant activity of washed plasma clot in unanticoagulated whole blood; assay type: biochemical; conditions: washed plasma clot incubated in unanticoagulated whole blood
From the text: There is mounting evidence that both fibrin-bound thrombin and platelet-bound factor Xa contribute to the intense procoagulant activity of thrombi. […] Development of these agents requires an understanding of the mechanisms by which fibrin-bound IIa and platelet-bound factor Xa are protected from inactivation by heparin, LMWH and hirudin.

injured rabbit aorta = assay: rabbit arterial thrombosis prevention model; assay type: in vivo; conditions: over the doses tested
Procedure: The arterial thrombosis prevention model was modified so that both efficacy and safety could be assessed in the same animal. […] The four compounds were compared at three dosage levels. Each compound was administered as a bolus and infusion for 90 minutes. The doses listed in the following figures represent the bolus and infusion/60 minutes, administered for 90 minutes. The doses for heparin are shown as units/Kg, for LMWH and V21 as mg/Kg and for hirudin as mg/Kg. […] Thus, the specific activity of LMWH is 100 anti-Xa/mg and 30 anti-IIa units/mg. […] The anticoagulants were compared in the following dosages. Heparin 50 units/Kg and 75 unit/Kg; LMWH and V21 0.5, 1.0 and 1.5 mg/Kg; Hirudin 0.1/0.1, 0.1/0.2 and 0.1/0.3 mg/Kg.
FIG. 11 compares the efficacy of the four anticoagulants using cumulative time that the aorta remained patent over the 90 minutes of observation as the outcome measure of efficacy. One hundred percent accumulated patency reflects complete patency and 0% cumulative patency reflects immediate and sustained thrombotic occlusion.

[1] = target: thrombin (IIa) binding to fibrin (Homo sapiens, UniProt P00734); assay: effect on thrombin (IIa) binding to fibrin / fibrin monomer-sepharose; conditions: presence of 250 nM heparin
Procedure: FIGS. 1A and 1B illustrate the effects of varying heparin concentrations on thrombin (IIa) binding to fibrin (A) and on thrombin's apparent affinity for fibrin (B).
FIG. 3 illustrates the effect of hirugen (Hg), prothrombin fragment 2 (F2) or antibody against exosite 2 (Wab) on thrombin (IIa) binding to fibrin monomersepharose in the absence or presence of 250 nM heparin.
FIG. 9 illustrates the effect of unfractionated heparin (UFH) and a 6,000 Da heparin fraction (MLMWH) on thrombin (IIa) binding to fibrin.
When heparin is present, the amount of thrombin that binds to fibrin changes, as does the mode of thrombin interaction with fibrin.
The mode of thrombin binding also changes in the presence of heparin. Whereas thrombin binds to fibrin via exosite 1 in the absence of heparin, enhanced α-thrombin binding seen in the presence of heparin is mediated by exosite 2 because heparin augments the binding of γ-thrombin to the same extent as α-thrombin but has little effect on the binding of RA-thrombin (FIG. 2). Furthermore, excess α-thrombin bound in the presence of heparin is displaced with an antibody to exosite 2 or with prothrombin fragment 2 (F2) which, like heparin, also binds to exosite 2 (Arni, R. K., et al. (1993) Biochemistry 32:4727-4737). […]

Molecule | block of the clot's ability to accelerate coagulation (washed plasma clot) | response of the model to the antithrombotic effects (injured rabbit aorta) | effect on heparin-dependent binding of thrombin to fibrin [1]
TAP: tick anticoagulant peptide, a direct inhibitor of factor Xa (YNRLCIKPRDWIDECDSNEGGERAYFRNGKGGCDSFWICPEDHTGADYYSSYRDCFNACI; UniProt P17726 1-60, looked up) | cannot be blocked | – | –
hirudin | cannot be blocked | very responsive | –
B1 | – | – | displaced
